The text below walks through data of PubChem BioAssay (NCI).

Structures are written as SMILES.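 Cells were grown in 96-well plates and exposed to each compound for 48 hours at five concentrations; endpoints were interpolated linearly between bracketing concentrations, or set to the highest concentration if not reached. TGI denotes the concentration required for complete inhibition of growth.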 Where only a bound is given, the exact number is not on record here.

Test systems include A549 NSCLC; CCRF-CEM leukemia; COLO 205 colon; HCT-15 colon; HT29 colon; KM12 colon; LOX IMVI melanoma; NCI-H522 lung; RPMI-8226 leukemia; SF-268 CNS; SF-295 CNS; SK-MEL-2 melanoma; SK-MEL-5 melanoma; SN12C renal; SNB-19 CNS; U251 CNS; NCI-H226 lung; SR leukemia.
Common to all, as to experiment: NCI anticancer screen, dose series, 48 h

Turning to `Oc1ccc(O)c(-n2cccn2)c1`, the TGI in the test on A549 NSCLC is greater than 100 µM; in the test on CCRF-CEM leukemia, 57 µM; in the test on COLO 205 colon, 46.2 µM; with HCT-15 colon it was greater than 100 µM; in the test with HT29 colon, greater than 100 µM; in the test with KM12 colon, greater than 100 µM. The TGI in the test on LOX IMVI melanoma is greater than 100 µM; in the test with NCI-H522 lung, 34.7 µM; in the test with RPMI-8226 leukemia, greater than 100 µM; with SF-268 CNS it was greater than 100 µM; in the test on SF-295 CNS, greater than 100 µM; with SK-MEL-2 melanoma, 95.7 µM. Also, the TGI in the test with SK-MEL-5 melanoma, in the test on SN12C renal, in the test on SNB-19 CNS and in the test on U251 CNS was greater than 100 µM in each case.

For the molecule `O=CC1=CCCN(CCc2c[nH]c3ccccc23)C1`, the TGI was greater than 393 µM in the test on A549 NSCLC; greater than 393 µM in the test on CCRF-CEM leukemia; 149 µM with COLO 205 colon; 83.2 µM in the test on HCT-15 colon; 116 µM in the test on HT29 colon; 128 µM with KM12 colon. Further, the TGI in the test on LOX IMVI melanoma is 12.2 µM; with NCI-H226 lung, 102 µM; in the test with NCI-H522 lung, 139 µM; in the test with RPMI-8226 leukemia, greater than 393 µM; with SF-268 CNS, 162 µM; in the test on SF-295 CNS, 112 µM. The TGI in the test on SK-MEL-2 melanoma is 119 µM; with SK-MEL-5 melanoma it was 129 µM; in the test with SN12C renal it was 109 µM; in the test on SNB-19 CNS it was 92.9 µM; with SR leukemia, greater than 393 µM; in the test with U251 CNS, 105 µM.

As for `CCCCN(C)CC(C(C)=O)C(c1ccccc1)c1c(O)c2ccccc2oc1=O` (stereo not given), the TGI with A549 NSCLC, with CCRF-CEM leukemia, in the test with COLO 205 colon, in the test on HCT-15 colon, with HT29 colon and with KM12 colon was greater than 100 µM in each case. Besides, the TGI with LOX IMVI melanoma, in the test on NCI-H226 lung, in the test with NCI-H522 lung, in the test with RPMI-8226 leukemia, with SF-268 CNS and in the test with SF-295 CNS was greater than 100 µM throughout. For the same molecule, the TGI in the test with SK-MEL-2 melanoma, in the test with SK-MEL-5 melanoma, in the test with SN12C renal, in the test with SNB-19 CNS, with SR leukemia and with U251 CNS was greater than 100 µM each time.

For the molecule `NC1=C(O)/C(=N/NS(=O)(=O)c2ccccc2)C(c2ccc3c(c2)OCO3)O1` (stereo not given), the TGI with A549 NSCLC, in the test on CCRF-CEM leukemia, in the test on COLO 205 colon, in the test on HCT-15 colon, in the test on HT29 colon and in the test on KM12 colon was greater than 100 µM throughout. Besides, the TGI in the test with LOX IMVI melanoma, in the test with NCI-H226 lung, with NCI-H522 lung, with RPMI-8226 leukemia, with SF-268 CNS and in the test with SF-295 CNS was greater than 100 µM each time. For the same molecule, the TGI in the test with SK-MEL-2 melanoma, with SK-MEL-5 melanoma, in the test on SN12C renal, in the test on SNB-19 CNS, in the test with SR leukemia and in the test with U251 CNS was greater than 100 µM in each case.

Regarding `CC1=C(O)C(=O)C2C(=O)C1C(C)C2c1ccccc1` (stereo not given), the TGI in the test on A549 NSCLC, with CCRF-CEM leukemia, in the test with COLO 205 colon, in the test on HCT-15 colon, in the test with HT29 colon and in the test with KM12 colon was greater than 100 µM each time. Besides, the TGI with LOX IMVI melanoma, with NCI-H226 lung, in the test on NCI-H522 lung, with RPMI-8226 leukemia, with SF-268 CNS and with SF-295 CNS was greater than 100 µM in each case. The TGI in the test with SK-MEL-2 melanoma, in the test on SK-MEL-5 melanoma, with SNB-19 CNS, with SR leukemia and in the test with U251 CNS was greater than 100 µM throughout.

For the molecule `CC(C)(C)OC(=O)NC(Cc1ccccc1)C(=S)N1CCCC1` (stereo not given), the TGI in the test with A549 NSCLC, in the test with CCRF-CEM leukemia, with COLO 205 colon, in the test with HCT-15 colon, in the test on HT29 colon and in the test on KM12 colon was greater than 100 µM each time. For the same molecule, the TGI with LOX IMVI melanoma was greater than 100 µM; in the test on NCI-H226 lung, greater than 100 µM; with NCI-H522 lung, 96.9 µM; in the test on RPMI-8226 leukemia, 98 µM; with SF-268 CNS, greater than 100 µM; in the test with SF-295 CNS it was greater than 100 µM. The TGI with SK-MEL-2 melanoma, in the test on SK-MEL-5 melanoma, in the test with SN12C renal, in the test with SNB-19 CNS and with U251 CNS was greater than 100 µM throughout.

For `Cc1ccc([N+](=O)[O-])cc1NC(=O)C(=O)Cc1nc2ccc(C(=O)c3ccccc3)cc2[nH]c1=O`, the TGI with A549 NSCLC, in the test with CCRF-CEM leukemia, with COLO 205 colon, in the test with HCT-15 colon, in the test on HT29 colon and in the test on KM12 colon was greater than 100 µM each time. The TGI with LOX IMVI melanoma, with NCI-H226 lung, in the test on NCI-H522 lung, in the test with SF-295 CNS, with SK-MEL-5 melanoma and in the test on SN12C renal was greater than 100 µM throughout. In addition, the TGI with SNB-19 CNS and with SR leukemia was greater than 100 µM in each case.

`O=C(NC1CCCCC1)NC12CC3CC(CC(F)(C3)C1)C2`: the TGI with A549 NSCLC, in the test with CCRF-CEM leukemia, with COLO 205 colon, in the test with HT29 colon, in the test on KM12 colon and in the test with LOX IMVI melanoma was greater than 100 µM throughout. In addition, the TGI in the test with NCI-H522 lung, in the test with RPMI-8226 leukemia, with SK-MEL-2 melanoma, with SK-MEL-5 melanoma, with SNB-19 CNS and with U251 CNS was greater than 100 µM each time.
